Reference: PubChem BioAssay (NCI)
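In this assay, cells in 96-well plates receive the compound at five concentrations for 48 hours. Endpoints are linearly interpolated between the surrounding concentrations. TGI denotes the concentration required for complete inhibition of growth.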

Legend:
Test in all cases: DTP human tumour cell line panel, 48 h
OVCAR-8 ovarian = tested on: OVCAR-8 ovarian
BT-549 breast = tested on: BT-549 breast
786-0 renal = tested on: 786-0 renal
SNB-75 CNS = tested on: SNB-75 CNS
NCI-H522 lung = tested on: NCI-H522 lung
A549 NSCLC = tested on: A549 NSCLC
HOP-92 NSCLC = tested on: HOP-92 NSCLC
HCT-116 colon = tested on: HCT-116 colon
MDA-MB-435 = tested on: MDA-MB-435
SK-MEL-28 melanoma = tested on: SK-MEL-28 melanoma
TK-10 renal = tested on: TK-10 renal
M14 melanoma = tested on: M14 melanoma
MOLT-4 leukemia = tested on: MOLT-4 leukemia
HCC-2998 colon = tested on: HCC-2998 colon
HL-60(TB) leukemia = tested on: HL-60(TB) leukemia
NCI/ADR-RES ovarian = tested on: NCI/ADR-RES ovarian
T-47D breast = tested on: T-47D breast
HCT-15 colon = tested on: HCT-15 colon
SR leukemia = tested on: SR leukemia
NCI-H226 lung = tested on: NCI-H226 lung
OVCAR-5 ovarian = tested on: OVCAR-5 ovarian
EKVX NSCLC = tested on: EKVX NSCLC
K-562 leukemia = tested on: K-562 leukemia
SK-OV-3 ovarian = tested on: SK-OV-3 ovarian
SW-620 colon = tested on: SW-620 colon
UACC-62 melanoma = tested on: UACC-62 melanoma
U251 CNS = tested on: U251 CNS
NCI-H460 lung = tested on: NCI-H460 lung
UO-31 renal = tested on: UO-31 renal
MALME-3M melanoma = tested on: MALME-3M melanoma
DU-145 prostate = tested on: DU-145 prostate
COLO 205 colon = tested on: COLO 205 colon
SNB-19 CNS = tested on: SNB-19 CNS
SK-MEL-2 melanoma = tested on: SK-MEL-2 melanoma
SF-539 CNS = tested on: SF-539 CNS
PC-3 prostate = tested on: PC-3 prostate
RXF 393 renal = tested on: RXF 393 renal
SK-MEL-5 melanoma = tested on: SK-MEL-5 melanoma
IGROV1 ovarian = tested on: IGROV1 ovarian
NCI-H23 lung = tested on: NCI-H23 lung
MDA-N = tested on: MDA-N
HS 578T breast = tested on: HS 578T breast
HOP-62 NSCLC = tested on: HOP-62 NSCLC
ACHN renal = tested on: ACHN renal
OVCAR-3 ovarian = tested on: OVCAR-3 ovarian
SN12C renal = tested on: SN12C renal
A498 renal = tested on: A498 renal
SF-268 CNS = tested on: SF-268 CNS
KM12 colon = tested on: KM12 colon
HT29 colon = tested on: HT29 colon
OVCAR-4 ovarian = tested on: OVCAR-4 ovarian
MDA-MB-231 breast = tested on: MDA-MB-231 breast
CCRF-CEM leukemia = tested on: CCRF-CEM leukemia
CAKI-1 renal = tested on: CAKI-1 renal
MCF7 breast = tested on: MCF7 breast
UACC-257 melanoma = tested on: UACC-257 melanoma
RPMI-8226 leukemia = tested on: RPMI-8226 leukemia
KM20L2 colon = tested on: KM20L2 colon
DMS 273 small cell lung = tested on: DMS 273 small cell lung
M19-MEL melanoma = tested on: M19-MEL melanoma
DMS 114 small cell lung = tested on: DMS 114 small cell lung
XF 498 CNS = tested on: XF 498 CNS
LXFL 529 NSCLC = tested on: LXFL 529 NSCLC
SF-295 CNS = tested on: SF-295 CNS
LOX IMVI melanoma = tested on: LOX IMVI melanoma

Measured: TGI

Cc1nc2c(ccc3[nH]c4ccccc4c32)s1
91.7 µM: NCI-H23 lung
76.9 µM: SN12C renal
98.7 µM: NCI-H226 lung
29.6 µM: SK-MEL-5 melanoma
37.2 µM: HCT-116 colon
79.4 µM: NCI-H460 lung
54.3 µM: U251 CNS
35 µM: NCI-H522 lung
40 µM: HOP-62 NSCLC
69.1 µM: EKVX NSCLC
51.9 µM: HCT-15 colon
46.5 µM: HS 578T breast
50.2 µM: M14 melanoma
41.2 µM: UACC-62 melanoma
74.8 µM: UO-31 renal
78.1 µM: TK-10 renal
36.4 µM: MDA-MB-231 breast
64.1 µM: OVCAR-3 ovarian
60.3 µM: SK-MEL-28 melanoma
31.3 µM: HT29 colon
64.7 µM: MDA-MB-435
87.8 µM: SR leukemia
30.2 µM: HCC-2998 colon
47.9 µM: PC-3 prostate
57.3 µM: BT-549 breast
56.5 µM: KM12 colon
45.4 µM: HOP-92 NSCLC | SW-620 colon
37.8 µM: COLO 205 colon
86.2 µM: MOLT-4 leukemia
54.7 µM: SK-MEL-2 melanoma
34.9 µM: A498 renal
not listed: RPMI-8226 leukemia | KM20L2 colon | DMS 273 small cell lung | M19-MEL melanoma | DMS 114 small cell lung | XF 498 CNS | LXFL 529 NSCLC | SF-295 CNS | LOX IMVI melanoma
> 100 µM: all other assays above

O=c1n(CC2CO2)c2ccccc2n1CC1CS1 (configuration not stated)
87.7 µM: HL-60(TB) leukemia
not listed: BT-549 breast | 786-0 renal | SNB-75 CNS | MDA-MB-435 | NCI/ADR-RES ovarian | T-47D breast | SK-OV-3 ovarian | U251 CNS | DU-145 prostate | PC-3 prostate | SK-MEL-5 melanoma | NCI-H23 lung | MDA-N | HS 578T breast | A498 renal | HT29 colon | MDA-MB-231 breast | MCF7 breast | UACC-257 melanoma
> 100 µM: all other assays above
